The molecules below were run against Hypoxia-inducible factor 1-alpha (assay: Inhibition of HIF-1 alpha transcriptional activity in human U-251 cells incubated for 24 hrs under hypoxia condition by luciferse reporter assay).

In order of rising IC50:
1. COc1ccc(/C=C/C(=O)c2ccc3c(c2O)C=CC(C)(C)O3)cc1OCCN1CCCC1  2.38 µM
2. COc1ccc(/C=C/C(=O)c2ccc3c(c2O)C=CC(C)(C)O3)cc1OCCCN1CCCC1  2.38 µM
3. COc1cc(/C=C/C(=O)c2ccc3c(c2O)C=CC(C)(C)O3)ccc1OCCCN1CCCC1  2.97 µM
4. COc1ccc(/C=C/C(=O)c2ccc3c(c2O)C=CC(C)(C)O3)cc1OCCCN1CCOCC1  3.31 µM
5. COc1ccc(/C=C/C(=O)c2ccc3c(c2O)C=CC(C)(C)O3)cc1OCCN1CCN(C)CC1  3.6 µM
6. COc1cc(/C=C/C(=O)c2ccc3c(c2O)C=CC(C)(C)O3)ccc1OCCN1CCN(C)CC1  3.6 µM
7. COc1cc(/C=C/C(=O)c2ccc3c(c2O)C=CC(C)(C)O3)ccc1OCCCN1CCC(C)CC1  3.78 µM
8. COc1ccc(/C=C/C(=O)c2ccc3c(c2O)C=CC(C)(C)O3)cc1OCCN1CCC(C)CC1  3.99 µM
9. COc1ccc(/C=C/C(=O)c2ccc3c(c2O)C=CC(C)(C)O3)cc1OCCCN1CCN(C)CC1  5.19 µM
10. COc1ccc(/C=C/C(=O)c2ccc3c(c2O)C=CC(C)(C)O3)cc1OCCCN1CCCCC1  5.38 µM
11. COc1cc(/C=C/C(=O)c2ccc3c(c2O)C=CC(C)(C)O3)ccc1OCCN1CCCCC1  5.4 µM
12. COc1cc(/C=C/C(=O)c2ccc3c(c2O)C=CC(C)(C)O3)ccc1OCCCN1CCCCC1  5.55 µM
13. CCN(CC)CCCOc1cc(/C=C/C(=O)c2ccc3c(c2O)C=CC(C)(C)O3)ccc1OC  5.65 µM
14. COc1cc(/C=C/C(=O)c2ccc3c(c2O)C=CC(C)(C)O3)ccc1OCCN1CCC(C)CC1  5.75 µM
15. COc1cc(/C=C/C(=O)c2ccc3c(c2O)C=CC(C)(C)O3)ccc1OCCCN1CCN(C)CC1  5.76 µM
16. COc1ccc(/C=C/C(=O)c2ccc3c(c2O)C=CC(C)(C)O3)cc1OCCCN1CCC(C)CC1  6.23 µM
17. CCN(CC)CCOc1ccc(/C=C/C(=O)c2ccc3c(c2O)C=CC(C)(C)O3)cc1OC  6.29 µM
18. CCN(CC)CCCOc1ccc(/C=C/C(=O)c2ccc3c(c2O)C=CC(C)(C)O3)cc1OC  6.3 µM
19. COc1cc(/C=C/C(=O)c2ccc3c(c2O)C=CC(C)(C)O3)ccc1OCCN1CCCC1  6.45 µM
20. COc1ccc(/C=C/C(=O)c2ccc3c(c2O)C=CC(C)(C)O3)cc1O  6.98 µM
21. COc1cc(/C=C/C(=O)c2ccc3c(c2O)C=CC(C)(C)O3)ccc1OCCN1CCOCC1  8.09 µM
22. COc1cc(/C=C/C(=O)c2ccc3c(c2O)C=CC(C)(C)O3)ccc1OCCCN1CCOCC1  10.5 µM
23. COc1ccc(/C=C/C(=O)c2ccc3c(c2O)C=CC(C)(C)O3)cc1OCCN1CCOCC1  10.6 µM
